Experimental data from PubChem BioAssay AID1963850 (Molecular Pharmacology Branch, DTP, NCI, 2024).

Tested on: 192522-019-R-J2-PDC complex tumor spheroid viability
Test: Anticancer human tumor 192522-019-R-J2-PDC patient-derived colon adenocarcinoma cell line growth inhibition [POLQ]
Settings: for IC50: curve of first compound; for viability, T/C: stronger effect = lower value
Outline: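 Growth inhibition in 3D: complex spheroids (tumor PDC, HUVEC, MSC) treated with POLQ inhibitor combinations; where Cmax unknown, highest tested concentration 10 microM, except SN-38 at 1 microM.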

[1] = second compound 0.0316 µM, first compound 0.0316 µM
[2] = second compound 0.0316 µM, first compound 0.1 µM
[3] = second compound 0.0316 µM, first compound 0.316 µM
[4] = second compound 0.0316 µM, first compound 1 µM
[5] = second compound 0.1 µM, first compound 0.0316 µM
[6] = second compound 0.1 µM, first compound 0.1 µM
[7] = second compound 0.1 µM, first compound 0.316 µM
[8] = second compound 0.1 µM, first compound 1 µM
[9] = second compound 0.316 µM, first compound 0.0316 µM
[10] = second compound 0.316 µM, first compound 0.1 µM
[11] = second compound 0.316 µM, first compound 0.316 µM
[12] = second compound 0.316 µM, first compound 1 µM
[13] = second compound 1 µM, first compound 0.0316 µM
[14] = second compound 1 µM, first compound 0.1 µM
[15] = second compound 1 µM, first compound 0.316 µM
[16] = second compound 1 µM, first compound 1 µM
[17] = second compound 3.16 µM, first compound 0.0316 µM
[18] = second compound 3.16 µM, first compound 0.1 µM
[19] = second compound 3.16 µM, first compound 0.316 µM
[20] = second compound 3.16 µM, first compound 1 µM
[21] = second compound 10 µM, first compound 0.0316 µM
[22] = second compound 10 µM, first compound 0.1 µM
[23] = second compound 10 µM, first compound 0.316 µM
[24] = second compound 10 µM, first compound 1 µM
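Also: spheroids exposed to drugs for seven days before reading.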
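For viability, T/C in this document: 100% = DMSO vehicle control viability in luminescence.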

For `O=C(c1cc(Cc2n[nH]c(=O)c3ccccc23)ccc1F)N1CCN(C(=O)C2CC2)CC1` + COC1C(OC(N)=O)C(O)C(Oc2ccc3c(O)c(NC(=O)c4ccc(O)c(CC=C(C)C)c4)c(=O)oc3c2C)OC1(C)C, the IC50 (second compound 0.0316 µM) was > 10000 nM, the IC50 (second compound 0.1 µM) was > 10000 nM and the IC50 (second compound 0.316 µM) was > 10000 nM. The IC50 (second compound 1 µM) was > 10000 nM, the IC50 (second compound 3.16 µM) was > 10000 nM and the IC50 (second compound 10 µM) was > 10000 nM. For the same compound, the viability, T/C [1] was 113%, the viability, T/C [2] was 95.1% and the viability, T/C [3] was 110%. For the same compound, the viability, T/C [4] was 93%, the viability, T/C (second compound 0.0316 µM, first compound 3.16 µM) was 102% and the viability, T/C (second compound 0.0316 µM, first compound 10 µM) was 104%. It also gave a viability, T/C [5] of 105%, a viability, T/C [6] of 102% and a viability, T/C [7] of 96.2%. It also gave a viability, T/C [8] of 98.2%, a viability, T/C (second compound 0.1 µM, first compound 3.16 µM) of 101% and a viability, T/C (second compound 0.1 µM, first compound 10 µM) of 97.1%. It also gave a viability, T/C [9] of 99%, a viability, T/C [10] of 98.9% and a viability, T/C [11] of 95.8%. For the same compound, the viability, T/C [12] was 97%, the viability, T/C (second compound 0.316 µM, first compound 3.16 µM) was 105% and the viability, T/C (second compound 0.316 µM, first compound 10 µM) was 90.5%. It also gave a viability, T/C [13] of 99.7%, a viability, T/C [14] of 98.5% and a viability, T/C [15] of 100%. For the same compound, the viability, T/C [16] was 97.3%, the viability, T/C (second compound 1 µM, first compound 3.16 µM) was 106% and the viability, T/C (second compound 1 µM, first compound 10 µM) was 91.4%. The viability, T/C [17] was 102%, the viability, T/C [18] was 98.8% and the viability, T/C [19] was 107%. The viability, T/C [20] was 99.8%, the viability, T/C (second compound 3.16 µM, first compound 3.16 µM) was 106% and the viability, T/C (second compound 3.16 µM, first compound 10 µM) was 99.2%. It also gave a viability, T/C [21] of 97.9%, a viability, T/C [22] of 96.6% and a viability, T/C [23] of 105%. It also gave a viability, T/C [24] of 109%, a viability, T/C (second compound 10 µM, first compound 3.16 µM) of 106% and a viability, T/C (second compound 10 µM, first compound 10 µM) of 101%.
`COc1cccc(OCCCN)c1-c1cc(Nc2cnc(C#N)cn2)n[nH]1` + Nc1ccc(C#CCN(C(=O)Cc2ncc(C(F)(F)F)cc2C(F)(F)F)c2ccc(F)cc2)nn1 showed an IC50 (second compound 0.0316 µM) of 26.9 nM, an IC50 (second compound 0.1 µM) of 25.7 nM and an IC50 (second compound 0.316 µM) of 27.1 nM. The IC50 (second compound 1 µM) was 28.1 nM, the IC50 (second compound 3.16 µM) was 29.1 nM and the IC50 (second compound 10 µM) was 26.9 nM. It also gave a viability, T/C (second compound 0.0316 µM, first compound 0.00316 µM) of 102%, a viability, T/C (second compound 0.0316 µM, first compound 0.01 µM) of 86% and a viability, T/C [1] of 44.1%. For the same compound, the viability, T/C [2] was 37.4%, the viability, T/C [3] was 40.7% and the viability, T/C [4] was 35.3%. The viability, T/C (second compound 0.1 µM, first compound 0.00316 µM) was 102%, the viability, T/C (second compound 0.1 µM, first compound 0.01 µM) was 78.4% and the viability, T/C [5] was 43.5%. It also gave a viability, T/C [6] of 39.4%, a viability, T/C [7] of 35% and a viability, T/C [8] of 36.3%. The viability, T/C (second compound 0.316 µM, first compound 0.00316 µM) was 102%, the viability, T/C (second compound 0.316 µM, first compound 0.01 µM) was 81.4% and the viability, T/C [9] was 45.2%. The viability, T/C [10] was 38.3%, the viability, T/C [11] was 37.5% and the viability, T/C [12] was 39.2%. It also gave a viability, T/C (second compound 1 µM, first compound 0.00316 µM) of 96.8%, a viability, T/C (second compound 1 µM, first compound 0.01 µM) of 87.5% and a viability, T/C [13] of 45.7%. It also gave a viability, T/C [14] of 40.6%, a viability, T/C [15] of 40.1% and a viability, T/C [16] of 40.5%. For the same compound, the viability, T/C (second compound 3.16 µM, first compound 0.00316 µM) was 101%, the viability, T/C (second compound 3.16 µM, first compound 0.01 µM) was 85.2% and the viability, T/C [17] was 47.2%. The viability, T/C [18] was 44.6%, the viability, T/C [19] was 45.3% and the viability, T/C [20] was 40.9%. The viability, T/C (second compound 10 µM, first compound 0.00316 µM) was 99.5%, the viability, T/C (second compound 10 µM, first compound 0.01 µM) was 66.7% and the viability, T/C [21] was 46.7%. It also gave a viability, T/C [22] of 43.1%, a viability, T/C [23] of 52.2% and a viability, T/C [24] of 46.8%.
